Where two headings read alike, the source gives them in different places.
How the values were obtained:
human Tie2 = molecular target: T1, human Tie2 (Homo sapiens, UniProt Q02763); test: Tie2 kinase inhibition: phosphorylation of GST-PLC (SH2-SH3 fragments) by GST-Tie2, 33P-ATP flashplate; format: biochemical
T1 construct: human Tie2 corresponding to amino acids 776-1124 of the intracellular domain was generated by PCR; made in house; host or cells: baculovirus expression system (vector pFastBacGT)
T1 sequence (Q02763 776-1124): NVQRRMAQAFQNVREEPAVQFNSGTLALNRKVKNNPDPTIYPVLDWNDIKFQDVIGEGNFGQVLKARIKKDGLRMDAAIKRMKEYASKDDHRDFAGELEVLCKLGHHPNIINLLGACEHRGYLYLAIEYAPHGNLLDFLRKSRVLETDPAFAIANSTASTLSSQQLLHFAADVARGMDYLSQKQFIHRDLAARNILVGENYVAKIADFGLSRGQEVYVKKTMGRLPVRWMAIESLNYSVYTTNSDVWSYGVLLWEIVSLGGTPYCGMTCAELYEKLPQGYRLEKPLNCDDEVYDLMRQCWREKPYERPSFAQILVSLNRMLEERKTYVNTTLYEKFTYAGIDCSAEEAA
Description: The coding sequence of human Tie2 corresponding to amino acids 776-1124 of the intracellular domain was generated by PCR using the cDNA isolated from human placenta as model. This sequence was introduced into a baculovirus expression vector pFastBacGT in the form of a GST fusion protein.
The inhibitory effect of the molecules is determined in an assay for phosphorylation of PLC by Tie2 in the presence of GST-Tie2 purified to approximately 80% homogeneity. The substrate is made up of the SH2-SH3 fragments of PLC, the latter being expressed in the form of a GST fusion protein.
The kinase activity of Tie2 is measured in a 20 mM MOPS buffer, pH 7.2, containing 10 mM MgCl2, 10 mM MnCl2, 1 mM DTT and 10 mM of glycerophosphate. A reaction mixture made up of 70 μl of kinase buffer containing 100 ng of GST-Tie2 enzyme per well is placed in a flashplate 96-well plate kept on ice. 10 μl of the molecule to be tested, diluted in DMSO, at a concentration of at most 10% are then added. For a given concentration, each measurement is carried out in quadruplicate. The reaction is initiated by adding 20 μl of solution containing 2 μg of GST-PLC, 2 μM of cold ATP and 1 μCi of ^33P[ATP]. After incubation for 1 hour at 37° C., the reaction is stopped by adding 1 volume (100 μl) of 200 mM EDTA. After removal of the incubation buffer, the wells are washed three times with 300 μl of PBS. The radioactivity is measured on a Wallac MicroBeta 1450.
The inhibition of the Tie2 activity is calculated and expressed as percentage inhibition with respect to the control activity determined in the absence of compound.

human KDR enzyme = molecular target: T2, human KDR enzyme (Homo sapiens, UniProt P35968); test: KDR kinase inhibition: phosphorylation of PLCγ SH2-SH3 substrate by KDR enzyme, 33P-ATP scintillation plate; format: biochemical
T2 construct: The cytoplasmic domain of the human KDR enzyme was cloned in GST fusion form; GST; made in house; host or cells: SF21 insect cells (baculovirus, pFastBac)
T2 sequence (P35968 786-1356 limits assumed): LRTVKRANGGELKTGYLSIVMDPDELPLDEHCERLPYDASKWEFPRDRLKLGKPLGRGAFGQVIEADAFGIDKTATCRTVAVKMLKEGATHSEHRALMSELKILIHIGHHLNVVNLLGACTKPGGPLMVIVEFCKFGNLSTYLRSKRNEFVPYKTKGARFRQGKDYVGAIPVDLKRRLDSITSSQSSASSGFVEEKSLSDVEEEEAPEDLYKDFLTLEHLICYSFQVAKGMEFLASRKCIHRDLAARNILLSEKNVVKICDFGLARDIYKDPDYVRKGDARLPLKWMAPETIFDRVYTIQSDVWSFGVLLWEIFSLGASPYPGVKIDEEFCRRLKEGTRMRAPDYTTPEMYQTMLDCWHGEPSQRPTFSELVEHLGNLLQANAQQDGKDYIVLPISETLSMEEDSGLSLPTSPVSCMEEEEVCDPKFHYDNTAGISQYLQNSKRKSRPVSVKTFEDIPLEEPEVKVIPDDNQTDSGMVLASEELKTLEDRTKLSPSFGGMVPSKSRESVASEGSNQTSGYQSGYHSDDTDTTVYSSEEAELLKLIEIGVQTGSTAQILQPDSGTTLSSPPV
Description: The inhibitory effect of the compounds is determined in an assay for phosphorylation of substrate by the KDR enzyme in vitro using a scintillation technique (96-well plate, NEN).
The cytoplasmic domain of the human KDR enzyme was cloned in GST fusion form into the baculovirus expression vector pFastBac. The protein was expressed in SF21 cells and purified to approximately 60% homogeneity. The KDR kinase activity is measured in 20 mM MOPS, 10 mM MgCl2, 10 mM MnCl2, 1 mM DTT, 2.5 mM EGTA, 10 mM b-glycerophosphate, pH=7.2, in the presence of 10 mM MgCl2, 100 μM Na3VO4 and 1 mM NaF. 10 μl of the compound are added to 70 μl of kinase buffer containing 100 ng of KDR enzyme at 4° C. The reaction is initiated by adding 20 μl of solution containing 2 μg of substrate (SH2-SH3 fragment of PLCγ expressed in the form of an GST fusion protein), 2 μCi γ ^33P[ATP] and 2 μM cold ATP. After incubation for 1 hour at 37° C., the reaction is stopped by adding 1 volume (100 μl) of 200 mM EDTA. The incubation buffer is removed and the wells are washed three times with 300 μl of PBS. The radioactivity is measured in each well using a Top Count NXT (Packard) radioactivity counter.
The background noise is determined by measuring the radioactivity in four different wells containing the radioactive ATP and the substrate alone.
A total activity control is measured in four different wells containing all the reagents (γ^33P-[ATP], KDR and PLC-γ substrate) but in the absence of compound.
The inhibition of the KDR activity with the compound of the invention is expressed as percentage inhibition of the control activity determined in the absence of compound.
The compound SU5614 (Calbiochem) (1 μM) is included in each plate as inhibition control.

[1] = Assay 1, read-out: Tie2 % Inhib at 10 μM (FRX) Assay 1
[2] = Assay 2, read-out: Tie2 % Inhib at 10 μM (FRX) Assay 2
[3] = Assay 1, read-out: KDR % Inhib at 10 μM Assay 1
[4] = Assay 2, read-out: KDR % Inhib at 10 μM Assay 2

Row | SMILES | inhibition at 10 µM (human Tie2; read-out: Tie2 % Inhib. 10 μM) | inhibition at 10 µM (human KDR enzyme; read-out: KDR % Inhib. 10 μM) | other results
1 | Cc1cc2nc(-c3[nH]nc4c3CCN(C(=O)c3ccccc3NCc3ccccc3)C4)[nH]c2cc1C [Example P-31378-112-8] |  |  | inhibition at 10 µM (human Tie2; [1]): 87.8%; inhibition at 10 µM (human Tie2; [2]): 93.3%; inhibition at 10 µM (human KDR enzyme; [3]): 86.8%; inhibition at 10 µM (human KDR enzyme; [4]): 89%
2 | Cc1cc2nc(-c3[nH]nc4c3CCN(CC3CC3)C4)[nH]c2cc1C [Chemistry 21] | 33% | 1.85% | 
3 | Cc1cc2nc(-c3[nH]nc4c3CCN(C)C4)[nH]c2cc1C [Chemistry 7] | 48.6% | 12.2% | 
4 | Cc1cc2nc(-c3[nH]nc4c3CCN(C(=O)c3ccccc3Nc3ccccc3)C4)[nH]c2cc1C [Example P-31378-112-1] |  |  | inhibition at 10 µM (human Tie2; [1]): 83.1%; inhibition at 10 µM (human Tie2; [2]): 88.1%; inhibition at 10 µM (human KDR enzyme; [3]): 96.5%; inhibition at 10 µM (human KDR enzyme; [4]): 96.7%
5 | Cc1cc2nc(-c3[nH]nc4c3CCN(S(=O)(=O)c3ccccc3)C4)[nH]c2cc1C [Chemistry 23] | 92.5% | 48% | 
6 | Cc1cc2nc(-c3[nH]nc4c3CCN(S(=O)(=O)c3ccccc3C)C4)[nH]c2cc1C [Chemistry 36] | 90.8% | 49.4% | 
7 | Cc1cc2nc(-c3[nH]nc4c3CCN(Cc3cccnc3)C4)[nH]c2cc1C [Chemistry 14] | 50.5% | 14.8% | 
8 | Cc1cc2nc(-c3[nH]nc4c3CCN(C(=O)C(C)(C)C)C4)[nH]c2cc1C [Chemistry 54] | 81.3% | 11.2% | 
9 | C=CCC(=O)N1CCc2c(n[nH]c2-c2nc3cc(C)c(C)cc3[nH]2)C1 [Chemistry 51] | 72.9% | 38.7% | 
10 | Cc1cc2nc(-c3[nH]nc4c3CCN(C(=O)Nc3ccccc3C)C4)[nH]c2cc1C [Chemistry 68] | 19.1% | 19.5% | 
11 | Clc1cccc(CN2CCc3c(n[nH]c3-c3nc4ccccc4[nH]3)C2)c1 [Chemistry 70] | 65.5% | 92.1% | 
12 | CCCN1CCc2c(n[nH]c2-c2nc3cc(C)c(C)cc3[nH]2)C1 [Chemistry 18] | 55% | -3.7% | 
13 | Cc1cc2nc(-c3[nH]nc4c3CCN(S(=O)(=O)Cc3ccccc3)C4)[nH]c2cc1C [Chemistry 24] | 91.5% | 70.8% | 
14 | CCCS(=O)(=O)N1CCc2c(n[nH]c2-c2nc3cc(C)c(C)cc3[nH]2)C1 [Chemistry 29] | 47.5% | 13.3% | 
15 | COc1ccc(S(=O)(=O)Nc2ccc(N3CCc4c(n[nH]c4-c4nc5cc(C)c(C)cc5[nH]4)C3)nc2)cc1 | 99% |  | 
16 | Cc1cc2nc(-c3[nH]nc4c3CCN(C(=O)c3ccccc3CCc3ccccc3)C4)[nH]c2cc1C [Example P-31378-112-7] |  |  | inhibition at 10 µM (human Tie2; [1]): 92.7%; inhibition at 10 µM (human Tie2; [2]): 92%; inhibition at 10 µM (human KDR enzyme; [3]): 68.6%; inhibition at 10 µM (human KDR enzyme; [4]): 64.3%
17 | Cc1cc2nc(-c3[nH]nc4c3CCN(C(=O)c3ccccc3Nc3ccccc3)C4)[nH]c2cc1C [Example P-31378-112-2] |  |  | Tie2 % Inhib at 10 μM (FRX) Assay 1 (human Tie2; Assay 1, 10 µM): 92.6%; Tie2 % Inhib at 10 μM (FRX) Assay 2 (human Tie2; Assay 2, 10 µM): 92.6%; KDR % Inhib at 10 μM Assay 1 (human KDR enzyme; Assay 1): 98.1%; KDR % Inhib at 10 μM Assay 2 (human KDR enzyme; Assay 2): 97.4%
18 | Cc1cc2nc(-c3[nH]nc4c3CCN(Cc3ccc(Cl)cc3)C4)[nH]c2cc1C [Chemistry 12] | 60.3% | 69% | 
19 | Cc1cc2nc(-c3[nH]nc4c3CCN(C(=O)CN(C)C)C4)[nH]c2cc1C [Chemistry 55] | 65.4% | 15.9% | 
20 | O=C(c1cccnc1)N1CCc2c(n[nH]c2-c2nc3ccccc3[nH]2)C1 [Chemistry 69] | 59.3% | 18.6% | 

— patent US7435820B2, “Substituted tetrahydro-1H-pyrazolo [3,4-c]pyridines compositions comprising them, and use” (Aventis Pharma S.A., priority 2003, dated 2008)
